What was measured:
Type in all cases: cell-based, human
5637 BECs = assay: β-hexosaminidase release assay; details: for release of β-hexosaminidase from E. coli-infected BECs: E. coli ORN103(pSH2)-infected 5637 BECs, NiCl2 2 mM, H89 10 μM; for release of β-hexosaminidase into extracellular media: uninfected 5637 BECs, 1 hr, forskolin 100 μM, dibutyryl-cAMP 1 mM, calcium ionophore 1 μM
[1] = test system: E. coli ORN103(pSH2)-infected 5637 BECs; assay: Bacterial exocytosis assay; details: inhibitors added during gentamicin incubation; H89 10 μM, NiCl2
Experimental: In this assay, 5637 BECs were infected with bacteria as above. Infection continued for 60 min, and then the cells were washed with culture medium (including 100 μg/ml gentamicin and 100 mM methyl α-D-mannopyranoside (Sigma, St. Louis, Mo.)) for an additional 30 min. The cells were then washed twice and then allowed to incubate for 1-4 h with fresh culture medium containing 100 mM methyl α-D-mannopyranoside. At each time point, the culture medium and one wash of 100 μl of culture medium with methyl α-D-mannopyranoside were collected and pooled. The inhibitors H89 (10 μM) and NiCl2 ([…]) were added during the gentamicin incubation and left in the culture medium. All homogenates and pooled culture medium were cultured for colony counts. All exocytosis assays had n=12 wells of a 96-well plate.

[2] = test system: E. coli ORN103(pSH2) within 5637 BECs; assay: Intracellular bacteria survival assay (antibiotic protection); details: NH4Cl 10 mM, 50 mM; Bafilomycin 1 μM
Experimental: In this assay, 5637 BECs were infected with ORN103(pSH2) E. coli diluted in RPMI 1640 medium at a multiplicity of infection (MOI) of 100:1. Cells were centrifuged for 5 min at 600 g, and incubated for 60 min at 37° C. Next, the cells were incubated with 100 μg/ml of gentamicin (Invitrogen) in RPMI medium for 30 min, and then with 10 μg/ml gentamicin in RPMI medium. At each time point, the cells were washed using PBS, solubilized with 0.1% Triton X-100 in PBS and plated for colony counts.

| SMILES | release of β-hexosaminidase from E. coli-infected BECs (5637 BECs) | E. coli ORN103(pSH2) exocytosis into antibiotic-free medium [1] | E. coli ORN103(pSH2) persistence within 5637 BECs [2] | release of β-hexosaminidase into extracellular media (5637 BECs) |
| --- | --- | --- | --- | --- |
| O=S(=O)(NCCNC/C=C/c1ccc(Br)cc1)c1cccc2cnccc12 [H89] | regulatable | reduced |  |  |
| CO/C1=C\C(C)=C\[C@@H](C)[C@@H](O)[C@@H](C)C/C(C)=C/C=C/[C@H](OC)[C@@H]([C@@H](C)[C@@H](O)[C@H](C)[C@@]2(O)C[C@@H](O)[C@H](C)[C@@H](C(C)C)O2)OC1=O [Bafilomycin] |  |  | caused no improvement |  |
| CCCC(=O)Nc1ncnc2c1ncn2[C@@H]1O[C@@H]2COP(=O)(O)O[C@H]2[C@H]1OC(=O)CCC [dibutyryl-cAMP] |  |  |  | stimulated the BECs to release appreciable levels of β-hexosaminidase |
| C[C@H](CCC(=O)O)C[C@H](C)C[C@H](C)C(=O)/C=C(\O)[C@H](C)C[C@H](C)C/C=C/[C@@H](C)[C@@H](O)[C@@H](C)[C@@H](O)C[C@@H]1CC[C@@](C)([C@H]2CC[C@@](C)([C@@H](C)O)O2)O1 [calcium ionophore, ionomycin] |  |  |  | stimulated the BECs to release appreciable levels of β-hexosaminidase |
| Cl.N [NH4Cl] |  |  | caused no improvement |  |
| [Cl][Ni][Cl] [NiCl2] | regulatable | reduced |  |  |

From US20140128399A1, “METHODS AND COMPOSITIONS FOR TREATING URINARY TRACT INFECTIONS USING AGENTS THAT MIMIC OR ELEVATE CYCLIC AMP” (DUKE UNIVERSITY, priority 2007, published 2014)
